Assay results as given in patent US20230279001A1, “IMIDAZO[1,2-A]PYRIDINE COMPOUNDS FOR THE TREATMENT OF AUTOIMMUNE DISEASE” (Hoffmann-La Roche Inc., priority 2020, published 2023).

Assays:
human TLR8 = human TLR8 (Homo sapiens (Human), UniProt Q9NR97); test: HEK293-Blue-hTLR-8 cells assay; assay type: cell-based; conditions: HEK293-Blue-hTLR8 cells, R848 stimulation, 20 hrs, SEAP reporter; read-out: HEK/hTLR8 IC50
Text: (§1) A stable HEK293-Blue-hTLR-8 cell line was purchased from InvivoGen (Cat. #: hkb-htlr8, San Diego, Calif., USA). These cells were originally designed for studying the stimulation of human TLR8 by monitoring the activation of NF-κB. A SEAP (secreted embryonic alkaline phosphatase) reporter gene was placed under the control of the IFN-β minimal promoter fused to five NF-κB and AP-1-binding sites. The SEAP was induced by activating NF-κB and AP-1 via stimulating HEK-Blue hTLR8 cells with TLR8 ligands. Therefore the reporter expression was declined by TLR8 antagonist under the stimulation of a ligand, such as R848, for incubation of 20 hrs. The cell culture supernatant SEAP reporter activity was determined using QUANTI-Blue™ kit (Cat. #: rep-gb1, Invivogen, San Diego, Ca, USA) at a wavelength of 640 nm, a detection medium that turns purple or blue in the presence of alkaline phosphatase.
(§2) HEK293-Blue-hTLR8 cells were incubated at a density of 250,000˜450,000 cells/mL in a volume of 170 μL in a 96-well plate in Dulbecco's Modified Eagle's medium (DMEM) containing 4.5 g/L glucose, 50 U/mL penicillin, […], […], 2 mM L-glutamine, 10% (v/v) heat-inactivated fetal bovine serum with addition of 20 μL test compound in a serial dilution in the presence of final DMSO at 1% and 10 μL of 60 uM R848 in above DMEM, perform incubation under 37° C. in a CO2 incubator for 20 hrs. Then 20 μL of the supernatant from each well was incubated with 180 μL Quanti-blue substrate solution at 37° C. for 2 hrs and the absorbance was read at 620655 nm using a spectrophotometer. The signaling pathway that TLR8 activation leads to downstream NF-κB activation has been widely accepted, and therefore similar reporter assay was modified for evaluating TLR8 antagonist.

human TLR7 = human TLR7 (Homo sapiens (Human), UniProt Q9NYK1); test: HEK293-Blue-hTLR-7 cells assay; assay type: cell-based; conditions: HEK293-Blue-hTLR7 cells, R848 stimulation, 20 hrs, SEAP reporter; read-out: HEK/hTLR7 IC50
Text: as §1, with “HEK293-Blue-hTLR-7” for “HEK293-Blue-hTLR-8”, “hkb-htlr7,” for “hkb-htlr8,”, “TLR7” for “TLR8”, “hTLR7” for “hTLR8”, “R848 (Resiquimod),” for “R848,”, “rep-qb1,” for “rep-gb1,”
as §2, with “HEK293-Blue-hTLR7” for “HEK293-Blue-hTLR8”, “20” for “60”, “620-655” for “620655”, “TLR7” for “TLR8”

[1] = Human microsome stability assay; assay type: in vitro ADME; conditions: human liver microsomes, 1 μM test compound, 37° C., NADPH regenerating system
Method: The human microsomal stability assay is used for early assessment of metabolic stability of a test compound in human liver microsomes.
Human liver microsomes (Cat. NO.: 452117, Corning, USA; Cat. NO.: H2610, Xenotech, USA) were preincubated with test compound for 10 minutes at 37° C. in 100 mM potassium phosphate buffer, pH 7.4. The reactions were initiated by adding NADPH regenerating system. The final incubation mixtures contained 1 μM test compound, 0.5 mg/mL liver microsomal protein, 1 mM MgCl2, 1 mM NADP, 1 unit/mL isocitric dehydrogenase and 6 mM isocitric acid in 100 mM potassium phosphate buffer, pH 7.4. After incubation times of 0, 3, 6, 9, 15 and 30 minutes at 37° C., 300 μL of cold acetonitrile (including internal standard) was added to 100 μL incubation mixture to terminate the reaction. Following precipitation and centrifugation, the amount of compound remaining in the samples were determined by LC-MS/MS. Controls of no NADPH regenerating system at zero and 30 minutes were also prepared and analyzed.

Sequence of human TLR7 (Q9NYK1 27-1049): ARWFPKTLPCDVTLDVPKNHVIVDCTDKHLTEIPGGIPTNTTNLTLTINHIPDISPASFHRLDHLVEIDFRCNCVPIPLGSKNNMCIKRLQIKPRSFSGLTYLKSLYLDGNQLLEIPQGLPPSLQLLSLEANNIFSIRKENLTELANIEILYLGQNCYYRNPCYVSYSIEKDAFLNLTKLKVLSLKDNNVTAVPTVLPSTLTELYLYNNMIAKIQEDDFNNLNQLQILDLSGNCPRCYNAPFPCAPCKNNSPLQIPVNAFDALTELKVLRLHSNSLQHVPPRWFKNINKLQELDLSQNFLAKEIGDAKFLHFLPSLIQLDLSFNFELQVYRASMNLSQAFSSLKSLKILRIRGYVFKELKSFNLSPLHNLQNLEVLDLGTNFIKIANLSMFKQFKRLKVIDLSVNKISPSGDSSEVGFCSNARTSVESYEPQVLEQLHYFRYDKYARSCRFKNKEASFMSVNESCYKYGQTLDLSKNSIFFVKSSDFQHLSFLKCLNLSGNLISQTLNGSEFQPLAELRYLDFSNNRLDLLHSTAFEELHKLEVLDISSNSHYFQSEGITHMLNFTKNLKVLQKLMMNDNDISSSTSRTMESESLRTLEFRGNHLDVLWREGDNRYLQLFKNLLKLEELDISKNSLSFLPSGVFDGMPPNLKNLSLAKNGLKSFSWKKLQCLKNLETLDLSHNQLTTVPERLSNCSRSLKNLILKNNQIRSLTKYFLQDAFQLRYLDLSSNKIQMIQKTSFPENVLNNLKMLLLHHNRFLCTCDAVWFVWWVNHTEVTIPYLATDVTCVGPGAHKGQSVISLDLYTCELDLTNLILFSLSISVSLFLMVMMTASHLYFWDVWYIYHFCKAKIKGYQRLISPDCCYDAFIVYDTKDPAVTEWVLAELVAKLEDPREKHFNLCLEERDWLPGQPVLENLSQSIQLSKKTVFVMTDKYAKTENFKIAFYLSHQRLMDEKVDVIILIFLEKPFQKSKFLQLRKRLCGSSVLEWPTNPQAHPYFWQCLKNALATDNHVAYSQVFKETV
Sequence of human TLR8 (Q9NR97 27-1041): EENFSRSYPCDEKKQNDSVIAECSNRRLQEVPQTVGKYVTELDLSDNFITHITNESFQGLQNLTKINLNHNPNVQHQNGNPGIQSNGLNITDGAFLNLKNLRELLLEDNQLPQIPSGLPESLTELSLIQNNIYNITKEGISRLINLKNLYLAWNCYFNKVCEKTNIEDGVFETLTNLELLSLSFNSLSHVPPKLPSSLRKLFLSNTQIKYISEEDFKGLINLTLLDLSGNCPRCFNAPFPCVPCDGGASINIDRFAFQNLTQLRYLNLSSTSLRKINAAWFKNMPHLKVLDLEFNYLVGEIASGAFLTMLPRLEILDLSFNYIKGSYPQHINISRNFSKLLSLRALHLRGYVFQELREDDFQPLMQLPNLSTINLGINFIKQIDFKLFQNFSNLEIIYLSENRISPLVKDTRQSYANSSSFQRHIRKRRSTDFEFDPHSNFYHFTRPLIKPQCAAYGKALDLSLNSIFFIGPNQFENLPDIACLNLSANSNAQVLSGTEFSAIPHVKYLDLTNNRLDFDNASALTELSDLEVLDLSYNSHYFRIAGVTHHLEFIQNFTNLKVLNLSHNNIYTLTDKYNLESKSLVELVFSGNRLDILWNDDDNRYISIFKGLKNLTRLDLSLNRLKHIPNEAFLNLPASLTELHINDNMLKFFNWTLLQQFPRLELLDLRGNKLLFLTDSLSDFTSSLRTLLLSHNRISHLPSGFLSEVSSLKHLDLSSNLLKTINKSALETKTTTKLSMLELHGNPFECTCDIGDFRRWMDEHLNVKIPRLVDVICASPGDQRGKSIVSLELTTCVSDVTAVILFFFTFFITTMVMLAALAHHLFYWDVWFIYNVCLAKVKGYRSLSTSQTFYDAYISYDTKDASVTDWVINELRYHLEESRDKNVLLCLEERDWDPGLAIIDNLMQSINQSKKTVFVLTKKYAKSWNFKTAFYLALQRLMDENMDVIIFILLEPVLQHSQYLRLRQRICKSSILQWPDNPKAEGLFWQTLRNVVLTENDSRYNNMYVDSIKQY

Row | IC50 (human TLR8) [nM] | IC50 (human TLR7) [nM] | Clearance of Human microsome [1] [mL/min/kg] | SMILES
1 | 1.3 | 1.6 | – | Cc1cc(-c2ccc(N3CCC(N4CCNCC4)CC3)nc2C(C)C)cn2ccnc12 [Example 2, 6-[2-isopropyl-6-(4-piperazin-1-yl-1-piperidyl)-3-pyridyl]-8-methyl-imidazo[1,2-a]pyridine]
2 | 1.2 | 5.8 | 6.15 | Cc1cn2cc(-c3ccc(N4CCC(N5CCNCC5)CC4)nc3C(C)C)cc(C)c2n1 [Example 3, 6-[2-isopropyl-6-(4-piperazin-1-yl-1-piperidyl)-3-pyridyl]-2,8-dimethyl-imidazo[1,2-a]pyridine]
3 | 2.9 | 8.9 | 8.25 | Cc1cn2cc(-c3ccc(N4CCC(N)CC4)nc3C(C)C)cc(C)c2n1 [Example 4, 1-[5-(2,8-dimethylimidazo[1,2-a]pyridin-6-yl)-6-isopropyl-2-pyridyl]piperidin-4-amine]
4 | 30.4 | 21.4 | – | Cc1cn2cc(-c3ccc(N4CCNC[C@H]4CO)nc3C(C)C)cc(C)c2n1 [Example 5, [(2S)-1-[5-(2,8-dimethylimidazo[1,2-a]pyridin-6-yl)-6-isopropyl-2-pyridyl]piperazin-2-yl]methanol]
5 | 8.6 | 22.7 | – | Cc1c(-c2ccc(N3CCC(N4CCNCC4)CC3)nc2C(C)C)cn2ccnc2c1C [Example 7, 6-[2-isopropyl-6-(4-piperazin-1-yl-1-piperidyl)-3-pyridyl]-7,8-dimethyl-imidazo[1,2-a]pyridine]
6 | 2.3 | 6.7 | – | Cc1cn2cc(-c3ccc(N4CCN5CCNCC5C4)nc3C(C)C)cc(C)c2n1 (centres unmarked) [Example 8, 2-[5-(2,8-dimethylimidazo[1,2-a]pyridin-6-yl)-6-isopropyl-2-pyridyl]-1,3,4,6,7,8,9,9a-octahydropyrazino[1,2-a]pyrazine]
7 | 10.7 | 13.2 | 7.20 | Cc1cc(-c2cc(C)c3nccn3c2)cnc1N1CCC(N2CCN(C)CC2)CC1 [Example 9, 8-methyl-6-[5-methyl-6-[4-(4-methylpiperazin-1-yl)-1-piperidyl]-3-pyridyl]imidazo[1,2-a]pyridine]
8 | 2.8 | 1.9 | 9.15 | Cc1cc(-c2ccc(N3CCC(N4CCNCC4)CC3)nc2C(F)F)cn2ccnc12 [Example 10, 6-[2-(difluoromethyl)-6-(4-piperazin-1-yl-1-piperidyl)-3-pyridyl]-8-methyl-imidazo[1,2-a]pyridine]
9 | 16.8 | 16.3 | 7.02 | Cc1cn2cc(-c3ccc(N4CCC(N5CCNCC5)CC4)nc3C(F)F)cc(C)c2n1 [Example 11, 6-[2-(difluoromethyl)-6-(4-piperazin-1-yl-1-piperidyl)-3-pyridyl]-2,8-dimethyl-imidazo[1,2-a]pyridine]
10 | 1.1 | 16.3 | 6.15 | Cc1cn2cc(-c3ccc(N4CCC(N5CC(C)(N)C5)CC4)nc3C(F)F)cc(C)c2n1 [Example 12, 1-[1-[6-(difluoromethyl)-5-(2,8-dimethylimidazo[1,2-a]pyridin-6-yl)-2-pyridyl]-4-piperidyl]-3-methyl-azetidin-3-amine]
11 | 0.4 | 3.9 | 9.45 | CCc1nc(N2CCC(N3CC4(CNCCO4)C3)CC2)ccc1-c1cc(C)c2nccn2c1 [Example 14, 2-[1-[6-ethyl-5-(8-methylimidazo[1,2-a]pyridin-6-yl)-2-pyridyl]-4-piperidyl]-5-oxa-2,8-diazaspiro[3.5]nonane]
12 | 0.3 | 2.7 | 6.15 | CCc1nc(N2CCC(N3C[C@@H](N)[C@H](OC)C3)CC2)ccc1-c1cc(C)c2nccn2c1 [Example 15, (3R,4R)-1-[1-[6-ethyl-5-(8-methylimidazo[1,2-a]pyridin-6-yl)-2-pyridyl]-4-piperidyl]-4-methoxy-pyrrolidin-3-amine]
13 | 1 | 17.3 | – | CCc1nc(N2CCC(N3C[C@@H](N)[C@H](OC)C3)CC2)ccc1-c1cc(C)c2nc(C)cn2c1 [Example 17, (3R,4R)-1-[1-[5-(2,8-dimethylimidazo[1,2-a]pyridin-6-yl)-6-ethyl-2-pyridyl]-4-piperidyl]-4-methoxy-pyrrolidin-3-amine]
14 | 41.8 | 35.8 | – | CCc1nc(N2CCC(C)(N)CC2)ccc1-c1cc(C)c2nc(C)cn2c1 [Example 20, 1-[5-(2,8-dimethylimidazo[1,2-a]pyridin-6-yl)-6-ethyl-2-pyridyl]-4-methyl-piperidin-4-amine]
15 | 3.6 | 5.9 | – | CCc1nc(N2CCC(N3CCNCC3)CC2)ccc1-c1cc(C)c2nc(C)cn2c1 [Example 21, 6-[2-ethyl-6-(4-piperazin-1-yl-1-piperidyl)-3-pyridyl]-2,8-dimethyl-imidazo[1,2-a]pyridine]
16 | 40 | 3.3 | 6.15 | CCc1cc(-c2cc(C)c3nccn3c2)cnc1N1CCC2(CCNCC2)CC1 [Example 22, 3-[3-ethyl-5-(8-methylimidazo[1,2-a]pyridin-6-yl)-2-pyridyl]-3,9-diazaspiro[5.5]undecane]
17 | 11.2 | 6.9 | 6.15 | COc1nc(N2CCC(N3CCNCC3)CC2)ccc1-c1cc(C)c2nccn2c1 [Example 25, 6-[2-methoxy-6-(4-piperazin-1-yl-1-piperidyl)-3-pyridyl]-8-methyl-imidazo[1,2-a]pyridine]
